Experimental findings from patent publication US10815274B2, “Immunogenic WT-1 peptides and methods of use thereof” (Memorial Sloan Kettering Cancer Center, priority 2012, dated 2020) are described below.

Where a SMILES comes first, the peptide text is derived from it.

The test system of one data set is WT1- autologous APC. The data set is described as follows: Cr51 release assay, cytotoxic CTL response vs unmodified autologous APC. To be noted: 50:1 E:T. The data set is classed as cell-based, human.
The test system of a further data set is WT1+ leukemia. Description: Cr51 release assay, cytotoxic CTL response vs WT1+ leukemia expressing restricting HLA allele. The class given is cell-based, human. To be noted: 50:1 E:T.
Data set [1] deals with WT1+ allo APC with restricting HLA allele loaded with WT1 peptide. Description: Cr51 release assay, cytotoxic CTL response vs peptide loaded allogeneic APC sharing restricting HLA allele (HLA restriction). To be noted: 50:1 E:T.
A further data set deals with PHA blasts. The data set is described as follows: Cr51 release assay, cytotoxic CTL response vs PHA blasts from the same leukemic patient. The data set is classed as cell-based, human. To be noted: 50:1 E:T, PHA blasts from same patients as the leukemia.
In data set [2] the test system is WT1 peptide loaded autologous APC. The data set is described as follows: Cr51 release assay, cytotoxic CTL response vs peptide loaded autologous APC. The data set is classed as cell-based, human. To be noted: 50:1 E:T.
In data set [3] the test system is WT1- allo APC with restricting HLA allele. The data set is described as follows: Cr51 release assay, cytotoxic CTL response vs unloaded allogeneic APC sharing restricting HLA allele. The data set is classed as cell-based, human. To be noted: 50:1 E:T.
In a further data set the test system is WT1- leukemia. Description: Cr51 release assay, cytotoxic CTL response vs WT1- leukemia. The data set is classed as cell-based, human. To be noted: 50:1 E:T.

As for `CSCC[C@H](NC(=O)[C@H](CCC(N)=O)NC(=O)[C@H](CCC(N)=O)NC(=O)[C@@H]1CCCN1C(=O)[C@H](CCC(=O)O)NC(=O)[C@H](CO)NC(=O)CNC(=O)[C@H](CO)NC(=O)[C@H](C)N)C(=O)O` [SEQ ID NO: 151] (H-ASGSEPQQM-OH; N-terminus and C-terminus assumed), the “Cytotoxic CTL response, % vs WT1- autologous APC” value in the data set with WT1- autologous APC (HLA allele B3501) worked out at 5%. Also, in the data set with WT1+ leukemia (HLA allele B3501), the “Cytotoxic CTL response, % vs WT1+ Leukemia” value was 39% and the “Cytotoxic CTL response, % vs WT1+ leukemia” value was 39%. Besides, the “Cytotoxic CTL response, % vs WT1+ allo APC with restricting HLA allele loaded with WT1 peptide” value (“Cytotoxic CTL response, % … with WT1 peptide” for short) in data set [1] (HLA allele B3501) is 51%. In the data set on PHA blasts (HLA allele B3501), the “Cytotoxic CTL response, % vs PHA blasts” value stood at 9%. In data set [2] (HLA allele B3501), the “Cytotoxic CTL response, % vs WT1 peptide loaded autologous APC” value is listed as 73%. Moreover, the “Cytotoxic CTL response, % vs WT1- allo APC with restricting HLA allele” value in data set [3] (HLA allele B3501) was found to be 3%. Also, in the data set with WT1- leukemia (HLA allele B3501), the “Cytotoxic CTL response, % vs WT1- leukemia” value was 5%.

Turning to `CC(C)C[C@H](NC(=O)[C@H](C)NC(=O)CNC(=O)[C@@H]1CCCN1C(=O)[C@H](Cc1c[nH]cn1)NC(=O)[C@@H]1CCCN1C(=O)[C@H](CCCNC(=N)N)NC(=O)[C@H](CCC(N)=O)NC(=O)[C@@H](N)CCCNC(=N)N)C(=O)O` [SEQ ID NO: 142, RQRPHPGAL] (H-RQRPHPGAL-OH; N-terminus and C-terminus assumed), the “Cytotoxic CTL response, % vs WT1- autologous APC” value in the data set with WT1- autologous APC (HLA allele B0702) turned out to be 0%. Further, in the data set with WT1+ leukemia (HLA allele B0702), the “Cytotoxic CTL response, % vs WT1+ Leukemia” value is reported as 67% and the “Cytotoxic CTL response, % vs WT1+ leukemia” value came out at 67%. The “Cytotoxic CTL response, % … with WT1 peptide” value in data set [1] (HLA allele B0702) was 53%. The “Cytotoxic CTL response, % vs PHA blasts” value with PHA blasts (HLA allele B0702) came to 2%. The “Cytotoxic CTL response, % vs WT1 peptide loaded autologous APC” value in data set [2] (HLA allele B0702) was 27%. Moreover, in data set [3] (HLA allele B0702), the “Cytotoxic CTL response, % vs WT1- allo APC with restricting HLA allele” value was found to be 1%. Moreover, in the data set with WT1- leukemia (HLA allele B0702), the “Cytotoxic CTL response, % vs WT1- leukemia” value came to 1%.

In the case of `C[C@@H](O)[C@H](N)C(=O)N[C@@H](Cc1c[nH]cn1)C(=O)N[C@@H](CO)C(=O)N1CCC[C@H]1C(=O)N[C@H](C(=O)N[C@@H](Cc1c[nH]cn1)C(=O)N1CCC[C@H]1C(=O)N1CCC[C@H]1C(=O)N[C@@H](CCCNC(=N)N)C(=O)O)[C@@H](C)O` [SEQ ID NO: 146] (H-THSPTHPPR-OH; N-terminus and C-terminus assumed), the “Cytotoxic CTL response, % vs WT1- autologous APC” value in the data set on WT1- autologous APC (HLA allele A0201) is on record as 2%; in the data set with WT1- autologous APC (HLA allele B4001), 0%. Besides, the “Cytotoxic CTL response, % vs WT1+ Leukemia” value turned out to be 38% in the data set on WT1+ leukemia (HLA allele A0201) and 65% in the data set on WT1+ leukemia (HLA allele B4001). The “Cytotoxic CTL response, % vs WT1+ leukemia” value came to 38% in the data set on WT1+ leukemia (HLA allele A0201) and 65% in the data set on WT1+ leukemia (HLA allele B4001). Also, the figures for the “Cytotoxic CTL response, % … with WT1 peptide” value in data set [1] (HLA allele A0201) and in data set [1] (HLA allele B4001) were 21% and 31%, respectively. The “Cytotoxic CTL response, % vs PHA blasts” value in the data set with PHA blasts (HLA allele A0201) was 3%; with PHA blasts (HLA allele B4001), 5%. Besides, the “Cytotoxic CTL response, % vs WT1 peptide loaded autologous APC” value in data set [2] (HLA allele A0201) turned out to be 50%; in data set [2] (HLA allele B4001) it was 45%. Also, the “Cytotoxic CTL response, % vs WT1- allo APC with restricting HLA allele” value in data set [3] (HLA allele A0201) came out at 1%; in data set [3] (HLA allele B4001) it was 0%. Further, the “Cytotoxic CTL response, % vs WT1- leukemia” value was found to be 0% with WT1- leukemia (HLA allele A0201) and 3% with WT1- leukemia (HLA allele B4001).

`CC(C)C[C@H](NC(=O)[C@H](CO)NC(=O)CNC(=O)[C@H](Cc1ccc(O)cc1)NC(=O)[C@H](C)NC(=O)[C@@H](N)CO)C(=O)NCC(=O)NCC(=O)N1CCC[C@H]1C(=O)O` [SEQ ID NO: 157] (H-SAYGSLGGP-OH; N-terminus and C-terminus assumed): the “Cytotoxic CTL response, % vs WT1- autologous APC” value in the data set on WT1- autologous APC (HLA allele A0201) and in the data set with WT1- autologous APC (HLA allele B4001) was 2% each time. For the same compound, the results for the “Cytotoxic CTL response, % vs WT1+ leukemia” value with WT1+ leukemia (HLA allele A0201) and in the data set with WT1+ leukemia (HLA allele B4001) were 0% and 68%, respectively. Also, the “Cytotoxic CTL response, % vs WT1+ Leukemia” value in the data set with WT1+ leukemia (HLA allele B4001) was 68%. Further, the results for the “Cytotoxic CTL response, % … with WT1 peptide” value in data set [1] (HLA allele A0201) and in data set [1] (HLA allele B4001) were 31% and 24%, respectively. Besides, the “Cytotoxic CTL response, % vs PHA blasts” value in the data set on PHA blasts (HLA allele B4001) stood at 3%. Moreover, the “Cytotoxic CTL response, % vs WT1 peptide loaded autologous APC” value in data set [2] (HLA allele A0201) was determined as 51%; in data set [2] (HLA allele B4001), 41%. In addition, the figures for the “Cytotoxic CTL response, % vs WT1- allo APC with restricting HLA allele” value in data set [3] (HLA allele A0201) and in data set [3] (HLA allele B4001) were 5% and 8%, respectively. Besides, the results for the “Cytotoxic CTL response, % vs WT1- leukemia” value in the data set on WT1- leukemia (HLA allele A0201) and in the data set with WT1- leukemia (HLA allele B4001) were 0% and 3%, respectively.

`CC(C)C[C@H](NC(=O)[C@H](C)NC(=O)CN)C(=O)N[C@@H](CCCNC(=N)N)C(=O)N[C@@H](CC(N)=O)C(=O)N1CCC[C@H]1C(=O)N[C@H](C(=O)N[C@@H](C)C(=O)N[C@@H](CS)C(=O)O)[C@@H](C)O` [SEQ ID NO: 143] (H-GALRNPTAC-OH; N-terminus and C-terminus assumed): the “Cytotoxic CTL response, % vs WT1- autologous APC” value in the data set with WT1- autologous APC (HLA allele B0702) was found to be 0%. For the same compound, in the data set on WT1+ leukemia (HLA allele B0702), the “Cytotoxic CTL response, % vs WT1+ Leukemia” value came to 60% and the “Cytotoxic CTL response, % vs WT1+ leukemia” value was found to be 60%. Also, the “Cytotoxic CTL response, % … with WT1 peptide” value in data set [1] (HLA allele B0702) turned out to be 22%. Also, the “Cytotoxic CTL response, % vs PHA blasts” value in the data set on PHA blasts (HLA allele B0702) was 1%. For the same compound, the “Cytotoxic CTL response, % vs WT1 peptide loaded autologous APC” value in data set [2] (HLA allele B0702) came to 30%. Also, the “Cytotoxic CTL response, % vs WT1- allo APC with restricting HLA allele” value in data set [3] (HLA allele B0702) came out at 5%. In addition, the “Cytotoxic CTL response, % vs WT1- leukemia” value in the data set with WT1- leukemia (HLA allele B0702) came to 1%.

For the compound `CC(C)C[C@H](NC(=O)[C@H](CC(N)=O)NC(=O)[C@H](CC(=O)O)NC(=O)[C@H](CO)NC(=O)[C@H](CO)NC(=O)[C@H](Cc1ccc(O)cc1)NC(=O)[C@@H]1CCCN1C(=O)[C@@H](NC(=O)[C@@H](N)CCCNC(=N)N)[C@@H](C)O)C(=O)O` [SEQ ID NO: 169] (H-RTPYSSDNL-OH; N-terminus and C-terminus assumed), the “Cytotoxic CTL response, % vs WT1- autologous APC” value in the data set on WT1- autologous APC (HLA allele B3503) and in the data set on WT1- autologous APC (HLA allele C0401) was 0% in each case. The “Cytotoxic CTL response, % vs WT1+ Leukemia” value in the data set with WT1+ leukemia (HLA allele B3503) and with WT1+ leukemia (HLA allele C0401) was 48% throughout. Further, the “Cytotoxic CTL response, % vs WT1+ leukemia” value in the data set with WT1+ leukemia (HLA allele B3503) and with WT1+ leukemia (HLA allele C0401) was 48% in each case. In data set [1] (HLA allele B3503), the “Cytotoxic CTL response, % … with WT1 peptide” value is on record as 31%. The “Cytotoxic CTL response, % vs PHA blasts” value in the data set on PHA blasts (HLA allele B3503) and with PHA blasts (HLA allele C0401) was 1% each time. Further, the “Cytotoxic CTL response, % vs WT1 peptide loaded autologous APC” value in data set [2] (HLA allele B3503) and in data set [2] (HLA allele C0401) was 84% each time. In data set [3] (HLA allele B3503), the “Cytotoxic CTL response, % vs WT1- allo APC with restricting HLA allele” value is on record as 3%. The “Cytotoxic CTL response, % vs WT1- leukemia” value in the data set with WT1- leukemia (HLA allele B3503) and with WT1- leukemia (HLA allele C0401) was 4% throughout.
